How the values were obtained:
[1] = test system: isolated rings of rat aorta; assay: Contractile response to ED80 norepinephrine or KCl in isolated rings of rat aorta (earlier studies, Lamb and Barna 1998); settings: for Vasodilator effect in the presence of NE or KCl: denuded blood vessel segments; for Effect on contractile response to ED80 concentrations of NE or KCl: rings with intact endothelium
Text: The above experiments were reported in Lamb and Barna, Am. J. Physiol., 275 H151 (1998) and Lamb and Barna, Am. J. Physiol., 275, 161 (1998), and are incorporated herein by reference.

[2] = test system: swelling-induced Cl ion current in cultured human aortic and coronary vascular smooth muscle cells; assay: Whole-cell voltage-clamp of swelling-induced chloride current; assay type: cell-based; settings: for Effect on swelling-induced Cl current: hypotonic conditions, whole-cell patch clamp, β-estradiol 10^−7 M, H-7 10^−5 M
Description: Electrophysiology. Chloride ion currents were measured from cultured human aortic and coronary vascular smooth muscle cells at room temperature (22-24° C. using standard whole-cell voltage-clamp techniques (Hamill et al., 1981; Lamb et al., 1994) and an Axopatch 200B patch-clamp amplifier driven by pClamp software (Axon Instruments). The hypotonic (250 mOsm/kg by freezing point depression) bath solution contained (mM): NaCl 125, MgCl2 2.5, CaCl2 2.5, HEPES 10, pH 7.2. Isotonic bath solution had the same ionic composition as the hypotonic solution except that the osmolality was adjusted to 300 mOsm/kg by adding mannitol. Pipette solution contained (mM): N′-methyl-D-glucamine chloride (NMDG—Cl) 135, EGTA 2, Mg-ATP 5, HEPES 10, pH 7.2 with osmolality adjusted to 300 mOsm/kg by adding mannitol. Thus, the chloride equilibrium potential remained 0 mV under both isotonic and hypotonic conditions. All components of the buffer solutions were obtained from Sigma. Pipette resistances were 3-5 MOhms.

[3] = test system: isolated aortic rings from male wild-type, heterozygote and Clcn3 knockout mice; assay: Dose-response to norepinephrine in isolated mouse aortic rings; settings: L-NNA 10^−4 M, wild-type tissues, FIG. 17
Description: Animals were sacrificed by exposure to 100% CO2 for five minutes followed by cervical dislocation. Thoracic aortae were removed, cleaned of adherent connective tissue and cut into 4 rings. […] Contractile responses were recorded using a MacLab 8E and stored on a Power MacIntosh 6400/200 computer. Passive stretch was set at 5.0 mN and the rings were allowed to equilibrate in Physiologic Salt Solution (PSS) at 37° C. for 60 minutes prior to the start of experimentation.

[4] = test system: Clcn3 knockout, heterozygous and wild type mice; assay: Pentylenetetrazole-induced seizure susceptibility; assay type: in vivo, mouse; settings: PTZ 70 mg/kg i.p.
Description: The proconvulsant, pentylenetetrazole (PTZ), was dissolved at 7 mg/ml in sterile 0.9% NaCl and administered to drug-naive mice at 70 mg/kg i.p. in a quiet daytime laboratory setting. Parameters measured during the 15-minute observation period included time to onset of generalized tonic-clonic or tonic seizures, and duration of the first generalized seizure. Lethality was assessed 60 minutes post-injection (Loscher and Nolting, 1991).

[5] = test system: erectile function; settings: cited from earlier work
[6] = test system: Clcn3^−/− mice; assay: Recovery from sedatives in adult Clcn3-/- mice
[7] = test system: rat thoracic aorta rings (vascular smooth muscle), intact or denuded endothelium; assay: Norepinephrine-induced contraction of isolated aortic rings, isometric tension; settings: 10 μM tamoxifen, FIG. 2
Description: Adult male Sprague-Dawley rats (250-300 g) were obtained from Harlan Sprague Dawley. The animals were killed by exposure to 100% CO2 for 5 minutes, followed by cervical dislocation. Thoracic aortas were removed, cleaned of adherent connective tissue, and cut into 6 mm rings. The endothelium was left intact, and the rings were mounted in individual 10 ml isolated organ chambers using standard methods for recording of isometric tension. Contractile responses were recorded with an eight-channel MacLab8E and stored on a Power Macintosh 7200 computer. Passive stretch was set at 2.5 g, and the rings were allowed to equilibrate in physiological salt solution (PSS) at 37° C. for 120 minutes before the start of experimentation. PSS was aerated with a mixture of 95% 2-5% CO2; the composition was as follows (in mM): 130 NaCl, 4.7 KCl, 1.18 KH2PO4, 1.17 MgSO47H2O, 14.9 NaHCO3, 1.6 CaCl2H2O, 5.5 dextrose, and 0.03 CaNa2-EDTA 0.03 (pH 7.30).
Intact and denuded aortic blood vessel segments were prepared, mounted as described in Example 1. • 2. […] Aliquots of NE (Sigma Chemical, St. Louis, Mo.), which had been dissolved directly into aqueous solution was applied to the vessel segments at concentrations between 10^−10 and 10^−5 M, and the contractile response measured as described above.

[8] = test system: isolated rings of rat aorta; settings: vasculature with intact endothelium; Lamb and Barna 1998; cited from earlier work
[9] = test system: rat thoracic aorta rings (vascular smooth muscle), intact or denuded endothelium; assay: KCl-induced contraction of isolated aortic rings, isometric tension; settings: 10 μM tamoxifen, FIG. 3
Description: Adult male Sprague-Dawley rats (250-300 g) were obtained from Harlan Sprague Dawley. The animals were killed by exposure to 100% CO2 for 5 minutes, followed by cervical dislocation. Thoracic aortas were removed, cleaned of adherent connective tissue, and cut into 6 mm rings. The endothelium was left intact, and the rings were mounted in individual 10 ml isolated organ chambers using standard methods for recording of isometric tension. Contractile responses were recorded with an eight-channel MacLab8E and stored on a Power Macintosh 7200 computer. Passive stretch was set at 2.5 g, and the rings were allowed to equilibrate in physiological salt solution (PSS) at 37° C. for 120 minutes before the start of experimentation. PSS was aerated with a mixture of […]; the composition was as follows (in mM): 130 NaCl, 4.7 KCl, 1.18 KH2PO4, 1.17 MgSO47H2O, 14.9 NaHCO3, 1.6 CaCl2H2O, 5.5 dextrose, and 0.03 CaNa2-EDTA 0.03 (pH 7.30).
Data were expressed as a percentage of the maximal response of each ring to the agonist.
• 1. Intact and denuded aortic blood vessel segments were prepared and mounted as described in Example 1. • 2. […] Cl (Sigma Chemical, St. Louis, Mo.), was applied to the vessels at 2, 4, 8, 12, 16, 20, 28, 40, 60, 80, and 100 mM concentrations, and the contractile response measured as described above.

[10] = test system: ion channel responsible for swelling-induced chloride conductance (CLC3); settings: Duan et al. 1997; Nilius et al. 1994; cited from earlier work

O=S(=O)(O)c1cc(N=C=S)ccc1C=Cc1ccc(N=C=S)cc1S(=O)(=O)O [DIDS, 4,4′-diisothiocyanato stilbene-2,2′disulphonic acid]
Vasodilator effect in the presence of NE or KCl [1]: persisted
Effect on contractile response to ED80 concentrations of NE or KCl [1]: significantly inhibited

CC1CNCCN1S(=O)(=O)c1cccc2cnccc12 (stereo not drawn) [H-7]
Effect on swelling-induced Cl current [2]: increased

NC(=NCCC[C@H](N)C(=O)O)N[N+](=O)[O-] [L-NNA]
Responsiveness to norepinephrine when endothelial nitric oxide synthase is inhibited [3]: increase in responsiveness

C1CCc2nnnn2CC1 [PTZ, pentylenetetrazole]
Mice with generalized seizures ([4]; Clcn3^+/+ mice (7/8)): 87.5%
Onset of generalized seizures ([4]; Clcn3^+/+ mice): 280 ± 112 s
Mice with generalized seizures ([4]; Clcn3^+/− mice (13/15), 4-5 weeks old): 86.7%
Onset of generalized seizures ([4]; Clcn3^+/− mice): 215 ± 56 s
Mice with seizure activity ([4]; Clcn3^−/− mice (1/8)): 12.5%
Onset of seizure activity ([4]; Clcn3^−/− mice): 58 s

CN1CCc2cccc3c2[C@H]1Cc1ccc(O)c(O)c1-3 [apomorphine]
Men returned to sexual potency ([5]; men whose dysfunction had psychological origins): about 70%
Time to response following administration ([5]; sublingual): 20 to 40 min

Cc1ncc2n1-c1ccc(Cl)cc1C(c1ccccc1F)=NC2 [midazolam]
Recovery time from sedation [6]: prolonged recovery time

O=C(O)c1cccnc1Nc1cccc(C(F)(F)F)c1 [niflumic acid]
Vasodilator effect in the presence of NE or KCl [1]: persisted
Effect on contractile response to ED80 concentrations of NE or KCl [1]: significantly inhibited

CCCC(C)C1(CC)C(=O)NC(=O)NC1=O (stereo not drawn) [pentobarbital]
Recovery time from sedation [6]: prolonged recovery time
Incidence of death ([6]; even at reduced doses): increased incidence of death

CC/C(=C(\c1ccccc1)c1ccc(OCCN(C)C)cc1)c1ccccc1 [tamoxifen, 1-p-β-dimethylaminoethoxyphenyl-trans-1,2-diphenylbut-1-ene]
Effect on NE sensitivity/contractility of endothelially compromised (denuded) vessel segments [7]: shifts the dose-response curve of NE back to the right
Effect on norepinephrine-induced contraction of normal vasculature [8]: no effect
Effect on KCl sensitivity/contractility of denuded vessel segments [9]: corrects the increase in vascular smooth muscle sensitivity to KCl
Swelling-induced chloride current ([2]; hypotonic + H7 (10^−5 M) + tamoxifen, n=3, hypotonic 1204±313 pA): 878±493 pA
Effect on swelling-induced Cl current [2]: inhibited
Block of ion channel responsible for swelling-induced chloride conductance [10]: block

C[C@]12CC[C@@H]3c4ccc(O)cc4CC[C@H]3[C@@H]1CC[C@@H]2O [β-estradiol]
Swelling-induced Cl current (ICl) ([2]; hypotonic plus estradiol 10^−7 M, +120 mV, n=5, hypotonic only 1451±495 pA): 3513±856 pA

Reference: patent US7393864B2, “Use of ClC3 chloride channel blockers to modulate vascular tone” (University of Iowa Research Foundation, priority 1999, dated 2008)
